“Also recorded” adds a separate entry of the source. Like-named read-outs stand apart in the source and are kept apart here. Values belong to the compound of their own block, whether it stands above or below them.
Columns and labels:
RAD51 [1] = biological target: T1, RAD51 (Homo sapiens, UniProt Q06609); assay: Gel-based D-loop assay; type: biochemical; details: for IC50: read-out: D-Loops IC50; for D-loop inhibitory activity, in words: summary of Tables 2 and 3
T1 sequence (Q06609 1-339): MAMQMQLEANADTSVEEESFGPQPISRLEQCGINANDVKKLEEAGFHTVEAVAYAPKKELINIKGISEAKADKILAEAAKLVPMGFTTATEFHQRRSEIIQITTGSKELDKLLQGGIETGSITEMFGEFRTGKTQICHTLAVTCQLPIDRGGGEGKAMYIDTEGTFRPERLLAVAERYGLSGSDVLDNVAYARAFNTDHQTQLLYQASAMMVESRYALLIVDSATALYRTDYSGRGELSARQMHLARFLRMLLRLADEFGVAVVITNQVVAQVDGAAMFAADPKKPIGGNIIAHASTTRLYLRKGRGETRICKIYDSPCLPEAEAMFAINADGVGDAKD
Method: Human RAD51 in reaction buffer was combined with compound in […] DMSO, incubated at 37° C. for 10 min, and then 1 μl of 5′-^32P-labeled 90-mer ssDNA (5′-[…]) with homology to the plasmid pRS306 ^34 was added and the reaction was incubated at 37° C. for an additional 5 minutes. 1 μl of supercoiled pRS306 was then added to the reaction and incubated at 37° C. for 20 minutes; at this point the reaction consisted of 25 mM HEPES-NaOH (pH 7.0), 1 mM ATP, 1 mM MgCl2, 1 mM DTT, 1.5 μM BSA, 4.5% DMSO, 0.5 μM RAD51, 11 mM NaCl, 1% glycerol, 20 nM ssDNA, and 5 nM pRS306. The reactions were de-proteinized with 0.8% SDS and 0.8 mg/ml proteinase K, mixed with gel loading buffer, and run on a 0.9% agarose/1×TAE gel, which was dried and exposed to a phosphor screen overnight and imaged on a Storm 860 PhosphorImager. Compound IC50 values were obtained by least-squares regression fitting of appropriate linear, log, or sigmoid dose-response models to the data, with the standard error indicated.
To improve upon the D-loop inhibitory activity, medicinal chemical studies were undertaken to optimize 8. First, different functional groups were appended to rings A and B as substituents, including alkyl groups of different sizes, electron withdrawing/donating groups, and hydrogen bond donor/acceptor groups. Next, replacement of the phenyl ring B with different heterocycles or other saturated/unsaturated rings was investigated in order to probe its role. For each of the prepared compounds, the gel-based D-loop assay and the microplate-based DNA binding assay were used to characterize the biochemical activities.

RAD51 [2] = biological target: T1, RAD51; assay: Fluorescence polarization-based DNA binding assay (RAD51-ssDNA binding); type: biochemical; details: for ssDNA binding IC50 / IC50: Stim = stimulator; for Emax: read-out: ssDNA binding Max effect; for influence on RAD51-ssDNA binding, in words: summary of Tables 2 and 3
Method: The fluorescence polarization-based DNA binding assay and purification of human RAD51 used for this assay was performed as previously described with a few modifications.^23 Reactions were carried out in black 384-well polystyrene plates. In each well, RAD51 protein was combined with reaction buffer and varying concentrations of compound in DMSO in an initial volume of 40 μl and incubated at 37° C. for 40 minutes. Then, 10 μl of reaction buffer containing fluorescently-labeled ssDNA substrate (5′-Alexa488-oligo-dT45) was added and the reaction incubated at 37° C. for another 40 minutes, after which the plate was read on a Tecan Infinite 200 Pro plate reader equipped with two sets of 485±25 nm/535±35 nm with parallel or perpendicularly-oriented polarization filters. In both steps of the reaction setup, buffer components were maintained at 20 mM HEPES-NaOH (pH 7.5), 2 mM ATP, 10 mM MgCl2, 0.1 mM TCEP-HCl (tris(2-carboxyethyl)phosphine), and 0.25 μM BSA. The final reaction contained 4% DMSO, 0.2 μM RAD51, 30 mM NaCl, 2% glycerol, and 2.22 nM ssDNA substrate. Compound IC50 values were obtained by least-squares regression fitting of appropriate linear, log, or sigmoid dose-response models to the data, with the standard error indicated. […]

[3] = Table 2, cells marked ↑: compound stimulates RAD51-ssDNA binding
[4] = Table 2, cells marked ↓: compound inhibits RAD51-ssDNA binding
[5] = Table 3, cells marked ↓: compound inhibits RAD51-ssDNA binding
[6] = Table 3, cells marked ↑: compound stimulates RAD51-ssDNA binding

IC50 (RAD51 [1]; Table 2): 71.7 ± 18.1 µM
D-loop inhibitory activity, in words (RAD51 [1]): moderate
IC50 (RAD51 [2]; Table 2): > 100 µM
Emax (RAD51 [2]; [4]): 6 ± 10%
Compound: c1cncc(-c2nc3ccccc3n3cccc23)c1 [Compound 11a, 4-(Pyridin-3-yl)pyrrolo[1,2-a]quinoxaline]

IC50 (RAD51 [1]; Table 2): 79.4 ± 6 µM
D-loop inhibitory activity, in words (RAD51 [1]): moderate
Emax (RAD51 [2]; [4]): 7 ± 38%
Compound: c1ccc2c(c1)nc(-c1ccncc1)c1cccn12 [Compound 11b, 4-(Pyridin-4-yl)pyrrolo[1,2-a]quinoxaline]

D-loop inhibitory activity, in words (RAD51 [1]): weak
ssDNA binding IC50 (RAD51 [2]; Table 2): Stim
Emax (RAD51 [2]; [3]): 42 ± 17%
influence on RAD51-ssDNA binding, in words (RAD51 [2]): modest influence
Compound: C1=C(c2nc3ccccc3n3cccc23)CCCC1 [Compound 11c, 4-(Cyclohex-1-en-1-yl)pyrrolo[1,2-a]quinoxaline]

D-loop inhibitory activity, in words (RAD51 [1]): weak
ssDNA binding IC50 (RAD51 [2]; Table 2): Stim
Emax (RAD51 [2]; [3]): 56 ± 31%
influence on RAD51-ssDNA binding, in words (RAD51 [2]): modest influence
Compound: c1ccc2c(-c3nc4ccccc4n4cccc34)cccc2c1 [Compound 11d, 4-(Naphthalen-1-yl)pyrrolo[1,2-a]quinoxaline]

D-Loops Max inhibition effect (RAD51 [1]; Table 3): 13 ± 12%
IC50 (RAD51 [1]; Table 3): > 100 µM
IC50 (RAD51 [2]; Table 3): 35 ± 14 µM
Emax (RAD51 [2]; [5]): 100 ± 18%
Compound: COc1ccc2c(c1)nc(-c1ccc(O)cc1)c1cccn12 [Compound 12a, 4-(7-Methoxypyrrolo[1,2-a]quinoxalin-4-yl)phenol]
influence on RAD51-ssDNA binding, in words (RAD51 [2]): relatively strong ssDNA binding inhibition

ssDNA binding IC50 (RAD51 [2]; Table 3): Stim
Emax (RAD51 [2]; [6]): 105 ± 47%
influence on RAD51-ssDNA binding, in words (RAD51 [2]): stimulators
Compound: COc1ccc2c(c1)nc(-c1ccc([N+](=O)[O-])cc1)c1cccn12 [Compound 12b, 7-Methoxy-4-(4-nitrophenyl)pyrrolo[1,2-a]quinoxaline]

D-Loops Max inhibition effect (RAD51 [1]; Table 3): 100 ± 4%
IC50 (RAD51 [1]; Table 3): 13.2 µM
IC50 (RAD51 [2]; Table 3): > 100 µM
Emax (RAD51 [2]; [5]): 29 ± 8%
influence on RAD51-ssDNA binding, in words (RAD51 [2]): only weakly influenced
Compound: COc1ccc2c(c1)nc(-c1ccc(N)cc1)c1cccn12 [Compound 12c, 4-(7-Methoxypyrrolo[1,2-a]quinoxalin-4-yl)aniline]

IC50 (RAD51 [1]; Table 3): 27.6 ± 4.9 µM
IC50 (RAD51 [2]; Table 3): > 100 µM
Emax (RAD51 [2]; [5]): 72 ± 11%
Compound: Oc1ccc(-c2nc3cc(O)ccc3n3cccc23)cc1 [Compound 12d, 4-(4-Hydroxyphenyl)pyrrolo[1,2-a]quinoxalin-7-ol]

IC50 (RAD51 [2]; Table 3): 57.8 ± 3 µM
Emax (RAD51 [2]; [5]): 92 ± 21%
Compound: O=[N+]([O-])c1ccc(-c2nc3cc(O)ccc3n3cccc23)cc1 [Compound 12e, 4-(4-Nitrophenyl)pyrrolo[1,2-a]quinoxalin-7-ol]

IC50 (RAD51 [1]; Table 3): 25 ± 5.1 µM
IC50 (RAD51 [2]; Table 3): 81.5 ± 16.6 µM
Emax (RAD51 [2]; [5]): 60 ± 18%
Compound: Nc1ccc(-c2nc3cc(F)ccc3n3cccc23)cc1 [Compound 12i, 4-(7-Fluoropyrrolo[1,2-a]quinoxalin-4-yl)aniline]

D-loop inhibitory activity, in words (RAD51 [1]): nearly absent
ssDNA binding IC50 (RAD51 [2]; Table 3): Stim
Emax (RAD51 [2]; [6]): 57 ± 28%
Compound: CN(C)c1ccc(-c2nc3cc(F)ccc3n3cccc23)cc1 [Compound 12j, 4-(7-Fluoropyrrolo[1,2-a]quinoxalin-4-yl)-N,N-dimethylaniline]

IC50 (RAD51 [1]; Table 3): 34 ± 2.9 µM
IC50 (RAD51 [2]; Table 3): > 100 µM
Emax (RAD51 [2]; [5]): 42 ± 8%
Compound: Nc1ccc(-c2nc3cc(F)c(F)cc3n3cccc23)cc1 [Compound 12l, 4-(7,8-Difluoropyrrolo[1,2-a]quinoxalin-4-yl)aniline]

D-loop inhibitory activity, in words (RAD51 [1]): nearly absent
ssDNA binding IC50 (RAD51 [2]; Table 3): Stim
Emax (RAD51 [2]; [6]): 65 ± 22%
Compound: CN(C)c1ccc(-c2nc3cc(F)c(F)cc3n3cccc23)cc1 [Compound 12m, 4-(7,8-Difluoropyrrolo[1,2-a]quinoxalin-4-yl)-N,N-dimethylaniline]

D-Loops Max inhibition effect (RAD51 [1]; Table 3): 74 ± 5%
IC50 (RAD51 [1]; Table 3): 38.6 ± 6.2 µM
Emax (RAD51 [2]; [5]): 16 ± 28%
Compound: COc1ccc2c(c1)nc(-c1cccnc1)c1cccn12 [Compound 13a, 7-Methoxy-4-(pyridin-3-yl)pyrrolo[1,2-a]quinoxaline]

D-Loops Max inhibition effect (RAD51 [1]; Table 3): 53 ± 30%
Emax (RAD51 [2]; [5]): 87 ± 10%
Compound: Oc1ccc2c(c1)nc(-c1cccnc1)c1cccn12 [Compound 13b, 4-(Pyridin-3-yl)pyrrolo[1,2-a]quinoxalin-7-ol]

IC50 (RAD51 [1]; Table 3): 46.1 ± 2.8 µM
ssDNA binding IC50 (RAD51 [2]; Table 3): Stim
Emax (RAD51 [2]; [6]): 117 ± 18%
influence on RAD51-ssDNA binding, in words (RAD51 [2]): stimulators
Compound: CCCOc1ccc2c(c1)nc(-c1ccc(N)cc1)c1cccn12 [Compound 15a, 4-(7-Propoxypyrrolo[1,2-a]quinoxalin-4-yl)aniline]

IC50 (RAD51 [1]; Table 3): 20 ± 4.1 µM
ssDNA binding IC50 (RAD51 [2]; Table 3): Stim
Emax (RAD51 [2]; [6]): 79 ± 23%
Compound: Nc1ccc(-c2nc3cc(OCCF)ccc3n3cccc23)cc1 [Compound 15b, 4-(7-(2-Fluoroethoxy)pyrrolo[1,2-a]quinoxalin-4-yl)aniline]
influence on RAD51-ssDNA binding, in words (RAD51 [2]): stimulators; also recorded: modest effects

The next lines start with the compound.

Compound: COc1ccc2c(c1)nc(-c1ccc(N(C)C)cc1)c1cccn12 [Compound 8, 4-(7-Methoxypyrrolo[1,2-a]quinoxalin-4-yl)-N,N-dimethylaniline]
D-Loops Max inhibition effect (RAD51 [1]; Table 1): 67%
IC50 (RAD51 [1]; Table 1): 13 µM
ssDNA binding IC50 (RAD51 [2]; Table 1): Stim
Emax (RAD51 [2]; Table 1, cells marked ↑: compound stimulates RAD51-ssDNA binding): 40 ± 28%

Compound: CN(C)c1ccc(-c2nc3ccccc3n3cccc23)cc1 [Compound 9a, N,N-dimethyl-4-(pyrrolo[1,2-a]quinoxalin-4-yl)aniline]
IC50 (RAD51 [1]; Table 2): 27.6 ± 6 µM
ssDNA binding IC50 (RAD51 [2]; Table 2): Stim
Emax (RAD51 [2]; [3]): 88 ± 22%
influence on RAD51-ssDNA binding, in words (RAD51 [2]): modest influence

Compound: O=[N+]([O-])c1cccc(-c2nc3ccccc3n3cccc23)c1 [Compound 9b, 4-(3-Nitrophenyl)pyrrolo[1,2-a]quinoxaline]
Emax (RAD51 [2]; [4]): 52 ± 14%
influence on RAD51-ssDNA binding, in words (RAD51 [2]): modest influence

Compound: Nc1cccc(-c2nc3ccccc3n3cccc23)c1 [Compound 9c, 3-(Pyrrolo[1,2-a]quinoxalin-4-yl)aniline]
IC50 (RAD51 [1]; Table 2): 91.1 ± 10.3 µM
Emax (RAD51 [2]; [4]): 11 ± 9%

Compound: Oc1ccc(-c2nc3ccccc3n3cccc23)cc1 [Compound 9d]
Emax (RAD51 [2]; [4]): 14 ± 16%

Compound: FC(F)(F)Oc1ccc(-c2nc3ccccc3n3cccc23)cc1 [Compound 9e, 4-(4-(Trifluoromethoxy)phenyl)pyrrolo[1,2-a]quinoxaline]
ssDNA binding IC50 (RAD51 [2]; Table 2): Stim
Emax (RAD51 [2]; [3]): 30 ± 21%

Compound: O=[N+]([O-])c1ccc(-c2nc3ccccc3n3cccc23)cc1 [Compound 9f, 4-(4-Nitrophenyl)pyrrolo[1,2-a]quinoxaline]
Emax (RAD51 [2]; [4]): 16 ± 13%

Compound: Nc1ccc(-c2nc3ccccc3n3cccc23)cc1 [Compound 9g, 4-(Pyrrolo[1,2-a]quinoxalin-4-yl)aniline]
IC50 (RAD51 [1]; Table 2): 22.1 µM
IC50 (RAD51 [2]; Table 2): > 100 µM
Emax (RAD51 [2]; [4]): 18 ± 11%

Compound: c1ccc2c(c1)nc(-c1ccc(N3CCCC3)cc1)c1cccn12 [Compound 9i, 4-(4-(Pyrrolidin-1-yl)phenyl)pyrrolo[1,2-a]quinoxaline]
ssDNA binding IC50 (RAD51 [2]; Table 2): Stim
Emax (RAD51 [2]; [3]): 69 ± 35%
influence on RAD51-ssDNA binding, in words (RAD51 [2]): modest influence

Compound: c1ccc2c(c1)nc(-c1ccc(N3CCOCC3)cc1)c1cccn12 [Compound 9j, 4-(4-(Pyrrolo[1,2-a]quinoxalin-4-yl)phenyl)morpholine]
D-Loops Max inhibition effect (RAD51 [1]; Table 2): 68 ± 7%
IC50 (RAD51 [1]; Table 2): 27.2 ± 3 µM
Emax (RAD51 [2]; [4]): 11 ± 19%

Compound: CN(C)c1ccc(-c2nc3cc(OC(C)(C)C(N)=O)ccc3n3cccc23)cc1 [Compound 16, 2-((4-(4-(Dimethylamino)phenyl)pyrrolo[1,2-a]quinoxalin-7-yl)oxy)-2-methylpropanamide]
IC50 (RAD51 [1]; Table 3): > 100 µM
ssDNA binding IC50 (RAD51 [2]; Table 3): Stim
Emax (RAD51 [2]; [6]): 131 ± 28%
influence on RAD51-ssDNA binding, in words (RAD51 [2]): stimulators

— patent publication US10973819B2, “Small molecules inhibitors of RAD51” (The University of Chicago, priority 2016, dated 2021)
